As a reminder, the EC50 is the concentration that produces a half-maximal response. As usually defined, the AC50 is the midpoint of the concentration-response curve, whichever way the signal moves. As a reminder, the IC50 is the concentration at which inhibition is half-maximal.

The record followed here is ChEMBL document CHEMBL1201862, “PubChem BioAssay data set” (2004).

Activity calls are given as the source filed them. Bounds are passed on as bounds.

The target of experiment [1] is T1, Eukaryotic translation initiation factor 2-alpha kinase 3 (Homo sapiens, UniProt Q9NZJ5).
T1 sequence (Q9NZJ5 whole entry): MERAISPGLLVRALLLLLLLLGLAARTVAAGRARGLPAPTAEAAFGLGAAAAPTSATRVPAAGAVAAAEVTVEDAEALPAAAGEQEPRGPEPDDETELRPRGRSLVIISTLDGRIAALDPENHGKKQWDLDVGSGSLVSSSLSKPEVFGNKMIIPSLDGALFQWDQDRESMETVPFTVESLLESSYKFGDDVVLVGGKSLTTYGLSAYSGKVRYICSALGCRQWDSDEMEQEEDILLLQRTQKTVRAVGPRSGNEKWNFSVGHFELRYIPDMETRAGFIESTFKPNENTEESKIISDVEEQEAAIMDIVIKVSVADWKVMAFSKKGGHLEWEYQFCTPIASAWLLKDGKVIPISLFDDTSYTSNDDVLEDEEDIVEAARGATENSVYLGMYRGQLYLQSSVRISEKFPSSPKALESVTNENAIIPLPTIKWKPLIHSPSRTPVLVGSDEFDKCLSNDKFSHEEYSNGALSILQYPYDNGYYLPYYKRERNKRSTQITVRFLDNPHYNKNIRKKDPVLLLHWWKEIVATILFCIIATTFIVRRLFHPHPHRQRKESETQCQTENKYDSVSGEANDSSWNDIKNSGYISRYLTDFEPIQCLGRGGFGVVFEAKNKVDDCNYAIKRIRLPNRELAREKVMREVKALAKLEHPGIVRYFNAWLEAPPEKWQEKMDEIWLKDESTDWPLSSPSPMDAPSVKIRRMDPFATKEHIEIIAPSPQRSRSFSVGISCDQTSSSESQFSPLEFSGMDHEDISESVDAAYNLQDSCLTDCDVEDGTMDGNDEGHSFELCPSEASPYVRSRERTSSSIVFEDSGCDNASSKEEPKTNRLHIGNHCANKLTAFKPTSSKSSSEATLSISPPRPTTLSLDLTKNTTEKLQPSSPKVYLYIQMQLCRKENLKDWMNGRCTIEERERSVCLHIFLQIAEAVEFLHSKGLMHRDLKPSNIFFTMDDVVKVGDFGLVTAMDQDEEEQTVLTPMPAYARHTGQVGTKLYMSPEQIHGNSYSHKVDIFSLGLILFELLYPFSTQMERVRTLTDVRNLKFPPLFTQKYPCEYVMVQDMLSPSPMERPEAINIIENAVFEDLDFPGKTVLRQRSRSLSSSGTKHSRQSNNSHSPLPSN
Put plainly: Dose response cell-based high-throughput screening assay to measure PERK inhibition. [Related pubchem assays: 1416 ]. The experiment is classed as functional.

Experiment [2] has as its target T1, Eukaryotic translation initiation factor 2-alpha kinase 3. Put plainly: Counterscreen assay for PERK inhibitors: Dose response cell-based high throughput screening assay to measure inhibition of PERK at 6 hours. [Related pubchem assays: 1522, 1416 ]. Format: functional. (The purpose of a counterscreen is to sort out artefacts and off-target activity.)
The target in experiment [3] is G-protein coupled receptor 55 (Homo sapiens, UniProt Q9Y2T6). The experiment is described as follows: GPR55 agonists via beta-arrestin recruitment, primary screen, imaging, U2OS cells, beta-arrestin-GFP redistribution (AID 1961). Format: functional. (Arrestin recruitment assays detect the binding of arrestin to an activated receptor.)
For the next experiment, the target named is Trypsin (Sus scrofa, UniProt P00761). The experiment is described as follows: porcine trypsin inhibitors, dose response, selectivity assay for Rce1 protease inhibitor project, biochemical, quenched peptide fluorescence, cherry-pick (AID 488789).
Experiment [4] in a line: LGR2 antagonists, dose response, cell-based, HEK293, CRE-luciferase reporter, cherry pick, set 2 (AID 743343).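 Further: transfected cells were stimulated with diluted bursicon conditioned medium after compound addition.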 Format: functional.
Experiment [5] can be described thus: microbe, parasite or virus in culture. The following applies: Mycobacterium tuberculosis. The experiment is classed as functional.
A short description of experiment [6]: HepG2 cell cytotoxicity, dose response, cytotoxicity control, plate reader, cherry-pick, antagonist series (AID 743416). The experiment is classed as functional, cell-based.
Experiment [7] can be described thus: MC4R antagonists, dose response, counter-screen for LGR2 antagonist project, cell-based, plate reader, cherry pick (AID 743444).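 Further: transfected HEK 293 cells stimulated with alpha-MSH peptide; potency of inhibitors of the alpha-MSH evoked signal.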 The experiment is classed as functional.
Experiment [8] addresses Neurotensin receptor type 1 (Homo sapiens, UniProt P30989). Format: functional.
In experiment [9] the target is DNA dC->dU-editing enzyme APOBEC-3A (Homo sapiens, UniProt P31941). The experiment is described as follows: APOBEC3A DNA deaminase inhibitors, dose response, biochemical (AID 504722). The experiment is classed as functional.
The target of experiment [10] is DNA dC->dU-editing enzyme APOBEC-3G (Homo sapiens, UniProt Q9HC16). Put plainly: Dose Response confirmation of small molecule APOBEC3G DNA Deaminase Inhibitors via a fluorescence-based single-stranded DNA deaminase assay. [Related pubchem assays (depositor defined):AID493012, AID493028]. The experiment is classed as functional.
The nature of experiment [11]: human group III sPLA2 inhibitors, dose response, biochemical, QFRET, IC50 (AID 743457).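 Further: green fluorescence rise as the enzyme cleaves BODIPY PC-A2 in liposomes; potency for inhibition of the enzyme.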
The target in experiment [12] is T2, Heat shock factor protein 1 (Mus musculus, UniProt P38532).
T2 sequence (P38532 whole entry): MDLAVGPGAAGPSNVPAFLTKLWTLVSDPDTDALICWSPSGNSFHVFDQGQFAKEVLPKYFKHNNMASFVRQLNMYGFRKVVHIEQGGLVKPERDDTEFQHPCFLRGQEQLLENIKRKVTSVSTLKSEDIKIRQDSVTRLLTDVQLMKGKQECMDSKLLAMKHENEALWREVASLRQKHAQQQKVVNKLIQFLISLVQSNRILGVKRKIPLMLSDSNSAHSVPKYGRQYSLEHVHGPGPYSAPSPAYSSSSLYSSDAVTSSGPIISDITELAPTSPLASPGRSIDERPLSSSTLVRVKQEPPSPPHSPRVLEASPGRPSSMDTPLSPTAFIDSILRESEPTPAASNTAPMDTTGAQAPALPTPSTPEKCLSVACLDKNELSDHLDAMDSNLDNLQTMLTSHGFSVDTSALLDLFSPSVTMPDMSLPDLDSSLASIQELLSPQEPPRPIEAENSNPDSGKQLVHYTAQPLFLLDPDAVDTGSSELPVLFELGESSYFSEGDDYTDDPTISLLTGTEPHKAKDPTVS
Put plainly: HSF1 potentiators in luciferase reporter cells, confirmation, cell-based, NIH3T3, luminescence, dose retest (AID 435004).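 Further: stress induced by proteasome inhibitor MG132 added 30 min after compound; luciferase reporter driven by HSF1 response element in NIH3T3 cells; actives raise luminescence as potentiators of the MG132 stress response.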 The experiment is classed as functional.

Experiment [13] deals with Cyclin-dependent kinase 5/CDK5 activator 1 (Homo sapiens, UniProt Q00535). Put plainly: CDK5/p35 kinase inhibitors, dose response, biochemical, cherry-picked samples, set 2 (AID 504545).
Experiment [14] deals with Protein-tyrosine kinase 2-beta (Homo sapiens, UniProt Q14289).
In another experiment the target is ORF 73 (Human herpesvirus 8, UniProt O40947). Put plainly: inhibitors of C-LANA binding to LBS DNA, dose response, biochemical, fluorescence polarization, cherry-picked samples (AID 504725).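 Further: fluorescence polarization of a labeled DNA duplex reporting LANA DNA binding; potency is for inhibitors that block LANA binding to the DNA.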 The arrangement: species or system Human gammaherpesvirus 8. (In general: Polarisation of emitted light reports the rotation of a fluorescent probe.)
The test system of another experiment is HEK293. Put plainly: HEK cell cytotoxicity by LDH release, dose response, cytotoxicity control for IDE activator project, fluorescence, HEK cells (AID 588440).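 Further: cytotoxicity by LDH release measuring loss of membrane integrity.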 The following applies: hek293. Format: functional, cell-based, Homo sapiens.
Experiment [15] deals with T3, Rac GTPase-activating protein 1 (Homo sapiens, UniProt Q9H0H5).
T3 sequence (Q9H0H5 whole entry): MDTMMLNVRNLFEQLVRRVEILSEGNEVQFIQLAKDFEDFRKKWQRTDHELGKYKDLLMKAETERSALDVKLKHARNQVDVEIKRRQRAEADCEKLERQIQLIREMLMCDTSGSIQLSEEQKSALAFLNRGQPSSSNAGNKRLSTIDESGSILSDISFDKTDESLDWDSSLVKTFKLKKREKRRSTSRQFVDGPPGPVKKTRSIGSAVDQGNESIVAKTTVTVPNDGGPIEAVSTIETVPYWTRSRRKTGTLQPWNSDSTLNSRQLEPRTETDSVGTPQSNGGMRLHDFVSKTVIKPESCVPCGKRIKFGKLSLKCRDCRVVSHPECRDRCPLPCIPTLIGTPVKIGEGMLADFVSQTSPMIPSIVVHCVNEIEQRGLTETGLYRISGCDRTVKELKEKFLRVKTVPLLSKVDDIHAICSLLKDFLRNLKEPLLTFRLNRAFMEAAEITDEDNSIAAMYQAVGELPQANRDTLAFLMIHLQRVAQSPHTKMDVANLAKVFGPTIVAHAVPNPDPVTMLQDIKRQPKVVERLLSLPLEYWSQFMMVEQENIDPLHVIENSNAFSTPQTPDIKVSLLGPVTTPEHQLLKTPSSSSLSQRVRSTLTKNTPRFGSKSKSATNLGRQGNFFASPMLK
The experiment is described as follows: MgcRacGAP GTPase-activating activity inhibitors, confirmation, biochemical, ADP Hunter fluorescence, primary and confirmatory (AID 624330). The experiment is classed as functional.

For experiment [16], the target named is T4, Insulin-degrading enzyme (Homo sapiens, UniProt P14735).
T4 sequence (P14735 whole entry): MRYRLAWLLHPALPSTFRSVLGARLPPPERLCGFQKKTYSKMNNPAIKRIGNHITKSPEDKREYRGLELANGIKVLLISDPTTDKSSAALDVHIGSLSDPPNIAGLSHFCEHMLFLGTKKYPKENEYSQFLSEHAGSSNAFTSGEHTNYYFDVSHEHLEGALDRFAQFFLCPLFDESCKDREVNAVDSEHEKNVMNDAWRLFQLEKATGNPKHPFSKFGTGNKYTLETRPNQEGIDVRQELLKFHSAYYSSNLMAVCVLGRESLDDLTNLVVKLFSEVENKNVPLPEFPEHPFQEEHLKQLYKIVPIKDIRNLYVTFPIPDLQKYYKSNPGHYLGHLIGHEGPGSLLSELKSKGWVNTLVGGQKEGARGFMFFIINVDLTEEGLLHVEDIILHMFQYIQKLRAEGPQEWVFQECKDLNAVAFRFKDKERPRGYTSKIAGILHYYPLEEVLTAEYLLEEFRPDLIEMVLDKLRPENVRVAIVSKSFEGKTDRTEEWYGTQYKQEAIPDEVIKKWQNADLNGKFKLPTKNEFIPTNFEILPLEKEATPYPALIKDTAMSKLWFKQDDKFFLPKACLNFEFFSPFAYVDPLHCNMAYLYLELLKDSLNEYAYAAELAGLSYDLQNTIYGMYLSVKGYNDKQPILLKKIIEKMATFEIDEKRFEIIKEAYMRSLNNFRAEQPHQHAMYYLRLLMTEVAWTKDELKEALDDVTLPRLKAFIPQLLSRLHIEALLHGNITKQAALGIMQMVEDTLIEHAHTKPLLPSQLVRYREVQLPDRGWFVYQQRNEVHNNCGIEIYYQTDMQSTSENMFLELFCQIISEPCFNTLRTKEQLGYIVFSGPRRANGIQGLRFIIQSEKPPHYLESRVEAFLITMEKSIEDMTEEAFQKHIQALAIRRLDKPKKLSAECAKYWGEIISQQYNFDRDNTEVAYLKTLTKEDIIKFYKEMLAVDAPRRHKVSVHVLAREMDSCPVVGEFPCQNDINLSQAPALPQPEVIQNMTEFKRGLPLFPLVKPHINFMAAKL
Put plainly: activators of endogenous IDE in HEK cells, dose response, cell-based, fluorescence polarization (AID 588439). Format: functional.

A further experiment deals with HeLa. The experiment is described as follows: HeLa cell cytotoxicity, dose response, cytotoxicity control, 24 h, cherry-picked samples (AID 504726).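 Further: potency for cytotoxicity as loss of luminescence signal.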 Format: functional, cell-based. The following applies: Homo sapiens.
The nature of experiment [17]: HeLa cell cytotoxicity, dose response, cytotoxicity control for MgcRacGAP inhibitor project (AID 624300). Format: functional.
Experiment [18] concerns the target T4, Insulin-degrading enzyme. The experiment is described as follows: activators of recombinant IDE enzyme, dose response, counter-screen for IDE activator project, biochemical, fluorescence polarization (AID 588681).

Neurotensin receptor type 1, sequence (P30989 whole entry): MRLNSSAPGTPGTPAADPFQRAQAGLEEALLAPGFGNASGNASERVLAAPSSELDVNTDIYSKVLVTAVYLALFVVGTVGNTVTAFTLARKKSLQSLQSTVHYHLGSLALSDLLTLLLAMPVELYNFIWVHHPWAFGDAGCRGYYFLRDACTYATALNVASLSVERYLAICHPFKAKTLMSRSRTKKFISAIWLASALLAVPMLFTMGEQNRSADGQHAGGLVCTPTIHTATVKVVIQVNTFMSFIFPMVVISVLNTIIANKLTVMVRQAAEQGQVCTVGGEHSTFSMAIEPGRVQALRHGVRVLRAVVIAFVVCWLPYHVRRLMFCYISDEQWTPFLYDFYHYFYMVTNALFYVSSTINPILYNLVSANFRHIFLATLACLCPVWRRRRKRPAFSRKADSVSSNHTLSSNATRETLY
DNA dC->dU-editing enzyme APOBEC-3G, sequence (Q9HC16 whole entry): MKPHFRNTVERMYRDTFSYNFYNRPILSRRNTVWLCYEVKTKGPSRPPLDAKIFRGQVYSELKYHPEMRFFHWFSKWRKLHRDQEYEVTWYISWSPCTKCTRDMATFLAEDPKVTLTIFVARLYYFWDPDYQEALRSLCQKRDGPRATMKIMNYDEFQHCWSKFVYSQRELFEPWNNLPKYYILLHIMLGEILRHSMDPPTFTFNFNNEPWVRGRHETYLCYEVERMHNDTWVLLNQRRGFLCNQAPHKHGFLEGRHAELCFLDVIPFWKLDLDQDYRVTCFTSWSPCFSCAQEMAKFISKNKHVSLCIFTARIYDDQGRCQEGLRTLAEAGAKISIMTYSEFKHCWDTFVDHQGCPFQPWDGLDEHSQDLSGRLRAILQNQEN
DNA dC->dU-editing enzyme APOBEC-3A, sequence (P31941 whole entry): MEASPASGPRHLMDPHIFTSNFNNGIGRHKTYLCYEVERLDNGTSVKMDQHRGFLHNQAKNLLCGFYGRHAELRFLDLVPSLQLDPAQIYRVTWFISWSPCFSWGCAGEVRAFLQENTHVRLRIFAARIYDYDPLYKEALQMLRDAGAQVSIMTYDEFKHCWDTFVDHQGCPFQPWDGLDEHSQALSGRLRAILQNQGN
Trypsin, sequence (P00761 whole entry): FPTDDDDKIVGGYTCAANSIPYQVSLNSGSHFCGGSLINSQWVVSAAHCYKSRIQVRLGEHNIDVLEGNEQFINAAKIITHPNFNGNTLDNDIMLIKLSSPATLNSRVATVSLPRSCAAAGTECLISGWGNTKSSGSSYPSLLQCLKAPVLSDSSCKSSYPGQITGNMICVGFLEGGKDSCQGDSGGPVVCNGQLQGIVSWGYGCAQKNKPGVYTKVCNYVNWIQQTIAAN
Protein-tyrosine kinase 2-beta, sequence (Q14289 whole entry): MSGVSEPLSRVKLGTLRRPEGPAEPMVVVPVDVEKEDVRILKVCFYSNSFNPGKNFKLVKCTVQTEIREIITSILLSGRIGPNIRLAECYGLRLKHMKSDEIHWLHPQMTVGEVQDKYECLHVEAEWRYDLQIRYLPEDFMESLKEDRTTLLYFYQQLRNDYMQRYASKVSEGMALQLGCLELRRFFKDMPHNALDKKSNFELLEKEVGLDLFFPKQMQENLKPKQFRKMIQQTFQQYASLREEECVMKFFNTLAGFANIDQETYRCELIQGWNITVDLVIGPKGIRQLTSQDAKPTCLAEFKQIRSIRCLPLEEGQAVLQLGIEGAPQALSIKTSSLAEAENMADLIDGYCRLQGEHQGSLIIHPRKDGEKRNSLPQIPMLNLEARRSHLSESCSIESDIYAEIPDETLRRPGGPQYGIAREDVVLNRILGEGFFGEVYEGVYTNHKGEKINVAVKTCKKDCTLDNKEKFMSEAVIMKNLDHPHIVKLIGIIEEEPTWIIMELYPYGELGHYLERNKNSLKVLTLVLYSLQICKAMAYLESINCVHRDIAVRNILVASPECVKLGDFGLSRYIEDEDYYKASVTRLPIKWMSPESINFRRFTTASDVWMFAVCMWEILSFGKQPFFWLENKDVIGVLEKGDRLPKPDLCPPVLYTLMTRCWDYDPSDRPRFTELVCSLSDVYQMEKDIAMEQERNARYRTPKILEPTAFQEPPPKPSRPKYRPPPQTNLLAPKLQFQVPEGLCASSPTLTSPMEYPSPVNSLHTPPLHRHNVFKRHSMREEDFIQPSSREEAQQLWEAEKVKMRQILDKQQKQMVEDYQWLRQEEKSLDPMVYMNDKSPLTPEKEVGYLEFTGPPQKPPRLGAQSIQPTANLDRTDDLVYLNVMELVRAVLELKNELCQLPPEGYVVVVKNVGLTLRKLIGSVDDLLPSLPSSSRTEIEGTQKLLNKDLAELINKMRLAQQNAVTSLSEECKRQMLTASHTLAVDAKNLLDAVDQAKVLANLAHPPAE
Cyclin-dependent kinase 5/CDK5 activator 1, sequence (Q00535 whole entry): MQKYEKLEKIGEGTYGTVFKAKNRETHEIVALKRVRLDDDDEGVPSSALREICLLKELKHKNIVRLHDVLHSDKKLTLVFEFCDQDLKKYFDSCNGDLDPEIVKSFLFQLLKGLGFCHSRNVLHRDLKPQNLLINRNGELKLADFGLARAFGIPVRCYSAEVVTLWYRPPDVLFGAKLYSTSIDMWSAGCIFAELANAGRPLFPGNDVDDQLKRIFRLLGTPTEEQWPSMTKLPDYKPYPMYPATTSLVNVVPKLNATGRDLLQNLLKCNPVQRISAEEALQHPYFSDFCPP
Cyclin-dependent kinase 5/CDK5 activator 1, sequence (Q15078 whole entry, further chain): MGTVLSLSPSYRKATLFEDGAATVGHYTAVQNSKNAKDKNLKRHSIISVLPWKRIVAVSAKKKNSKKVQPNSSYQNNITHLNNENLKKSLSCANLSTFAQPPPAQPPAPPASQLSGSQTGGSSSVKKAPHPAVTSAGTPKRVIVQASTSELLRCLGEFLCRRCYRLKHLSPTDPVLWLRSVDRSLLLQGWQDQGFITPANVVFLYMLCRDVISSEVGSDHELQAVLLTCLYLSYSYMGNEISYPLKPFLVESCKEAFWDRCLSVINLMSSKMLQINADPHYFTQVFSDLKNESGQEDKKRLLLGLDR
G-protein coupled receptor 55, sequence (Q9Y2T6 whole entry): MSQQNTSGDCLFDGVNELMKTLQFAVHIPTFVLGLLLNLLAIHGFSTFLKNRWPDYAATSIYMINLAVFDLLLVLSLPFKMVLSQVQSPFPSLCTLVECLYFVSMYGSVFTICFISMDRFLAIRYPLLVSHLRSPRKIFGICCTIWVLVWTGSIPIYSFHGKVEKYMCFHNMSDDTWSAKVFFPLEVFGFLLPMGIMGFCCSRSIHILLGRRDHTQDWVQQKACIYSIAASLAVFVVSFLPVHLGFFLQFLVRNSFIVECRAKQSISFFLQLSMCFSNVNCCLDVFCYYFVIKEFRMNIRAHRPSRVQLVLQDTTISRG
ORF 73, sequence (O40947 whole entry): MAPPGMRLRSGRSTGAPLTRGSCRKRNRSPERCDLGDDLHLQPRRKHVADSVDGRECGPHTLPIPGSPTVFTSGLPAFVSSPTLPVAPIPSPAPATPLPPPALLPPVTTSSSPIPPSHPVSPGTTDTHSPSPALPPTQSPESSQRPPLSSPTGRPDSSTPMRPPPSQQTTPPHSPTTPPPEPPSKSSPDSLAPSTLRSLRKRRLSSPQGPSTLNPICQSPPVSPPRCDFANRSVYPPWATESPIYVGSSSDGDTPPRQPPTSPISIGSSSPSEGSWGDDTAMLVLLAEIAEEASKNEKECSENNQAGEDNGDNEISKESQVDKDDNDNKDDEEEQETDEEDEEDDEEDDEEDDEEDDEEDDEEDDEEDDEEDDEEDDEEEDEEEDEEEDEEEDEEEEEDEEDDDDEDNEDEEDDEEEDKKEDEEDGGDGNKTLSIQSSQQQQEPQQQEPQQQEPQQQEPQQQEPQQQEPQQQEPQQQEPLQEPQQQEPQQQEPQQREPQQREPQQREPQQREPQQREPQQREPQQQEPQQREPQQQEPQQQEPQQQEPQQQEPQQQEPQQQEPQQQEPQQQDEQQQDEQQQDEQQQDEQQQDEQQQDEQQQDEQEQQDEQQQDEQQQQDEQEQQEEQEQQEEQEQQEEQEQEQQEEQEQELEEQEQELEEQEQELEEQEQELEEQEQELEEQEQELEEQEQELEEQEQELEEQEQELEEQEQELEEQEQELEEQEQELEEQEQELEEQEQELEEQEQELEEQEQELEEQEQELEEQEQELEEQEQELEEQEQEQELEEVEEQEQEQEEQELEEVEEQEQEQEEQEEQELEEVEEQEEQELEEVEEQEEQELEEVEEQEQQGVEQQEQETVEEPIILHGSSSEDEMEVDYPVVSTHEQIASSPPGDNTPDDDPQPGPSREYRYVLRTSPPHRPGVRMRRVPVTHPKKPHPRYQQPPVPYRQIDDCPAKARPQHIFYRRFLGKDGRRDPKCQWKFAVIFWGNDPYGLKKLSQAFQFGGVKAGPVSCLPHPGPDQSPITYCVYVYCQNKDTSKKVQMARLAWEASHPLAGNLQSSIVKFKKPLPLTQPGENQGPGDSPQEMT

Turning to `CC(NS(=O)(=O)c1ccccc1)c1nnc(S)n1-c1ccccc1` (configuration not stated), the EC50 in experiment [1] and in experiment [2] was > 55.7 µM (not active) each time.

Consider `O=C(Oc1ccccc1/C=C\C(=O)c1cc2ccccc2o1)c1ccccc1`, for which the EC50 in experiment [3] is 15.4 µM (inactive).

`COc1ccc(-c2ccc(-c3nnc(-c4cc(OC)ccc4OC)o3)cc2)cc1`: the AC50 on Trypsin is 10.4 µM (active).

On to `Cc1cc(C)c(NC(=O)NC(=O)C(Cl)(Cl)Cl)c(C)c1`, for which the EC50 in experiment [1] and in experiment [2] was > 55.7 µM (not active) each time.

For `COC(=O)c1ccc(NC(=O)CSc2nc3ccc(N4C(=O)C5C6C=CC(C6)C5C4=O)cc3s2)cc1` (configuration not stated), the values for the AC50 in [4], in [6] and in experiment [7] were 8.11 µM (active), > 52 µM (inactive) and 7.79 µM (active), respectively. In addition, the CC50 in [5] was > 40 µM (active). In experiment [8], the EC50 is > 40 µM (inactive).

As to `Sc1nccn1-c1ccc(Cl)cc1`, the results for the IC50 in experiment [9] and in experiment [10] were > 100 µM (inactive) and 16.8 µM (active), respectively.

For `CCn1c(S)nnc1-c1cccc(Br)c1`, the IC50 in experiment [9] was > 100 µM (inactive); in experiment [11] it was > 122 µM (inactive); in experiment [10] it was 4.37 µM (active).

Take `COc1cc(/C=N/Nc2nc(-c3ccc(S(=O)(=O)N(C)C)cc3)cs2)ccc1O`: the EC50 in experiment [8] is 17.6 µM (active).

As for `O=C1Nc2ccccc2/C1=C/c1c[nH]cn1`, the EC50 in experiment [12] was 17.5 µM (active). Besides, the AC50 in [13] is 0.268 µM (active). In addition, the IC50 in experiment [14] was 8.78 µM (active).

`C[n+]1c2cc(N)ccc2cc2ccc(N)cc21` [EUFLAVINE]: the AC50 on ORF 73 is 0.415 µM (active); with HeLa, 14.7 µM (active). Also, the IC50 was > 89.2 µM (inactive) in the experiment with HEK293 and 78.3 µM (active) in experiment [15]. The EC50 on Insulin-degrading enzyme [16] and at Insulin-degrading enzyme [18] was > 54.7 µM (inactive) each time. The CC50 in experiment [17] is 11.6 µM (active).
